Laboratory results reported in the supplement of paper PMC10307832.

Key:
Assay in all cases: relative viability (nuclei count vs DMSO), 5 days (fraction); higher = more cells survive
[1] = compound: OCc1c[nH]c2ccccc12 [Indole-3-carbinol] + Cc1nc(Nc2ncc(C(=O)Nc3c(C)cccc3Cl)s2)cc(N2CCN(CCO)CC2)n1 [Dasatinib] (partner 0.075 µM)
In short: (§1)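 Dosing by pin tool came one day after lung cancer cell lines were seeded in 1536-well plates, using either one drug or a fixed anchor-drug dose plus five library-drug doses (not always all listed) in √10 steps. After 5 days, nuclei were counted on 4× images. Relative viability is treated-well nuclei count divided by vehicle-well nuclei count, and values are medians of duplicate plates.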

[2] = compound: OCc1c[nH]c2ccccc12 [Indole-3-carbinol] + Cc1cc(Nc2cc(N3CCN(C)CC3)nc(Sc3ccc(NC(=O)C4CC4)cc3)n2)n[nH]1 [Tozasertib] (partner 0.1 µM)
In short: as §1

[3] = compound: OCc1c[nH]c2ccccc12 [Indole-3-carbinol] + O=C(c1cc(Cc2n[nH]c(=O)c3ccccc23)ccc1F)N1CCN(C(=O)C2CC2)CC1 [Olaparib] (partner 8 µM)
In short: as §1

[4] = compound: OCc1c[nH]c2ccccc12 [Indole-3-carbinol] + O=C(CCCCCCC(=O)Nc1ccccc1)NO [Vorinostat] (partner 1 µM)
In short: as §1

[5] = compound: OCc1c[nH]c2ccccc12 [Indole-3-carbinol] + C[C@]1(O)C[C@@H](c2nc(-c3ccc4ccc(-c5ccccc5)nc4c3)c3c(N)nccn32)C1 [Linsitinib] (partner 1 µM)
In short: as §1

NCI-H1755
relative viability ([1]; first compound 0.253 µM): 0.441 | relative viability ([1]; first compound 0.8 µM): 0.456 | relative viability ([1]; first compound 2.53 µM): 0.706 | relative viability ([1]; first compound 8 µM): 0.364 | relative viability ([2]; first compound 0.253 µM): 0.642 | relative viability ([2]; first compound 0.8 µM): 0.592 | relative viability ([2]; first compound 2.53 µM): 0.647 | relative viability ([2]; first compound 8 µM): 0.535 | relative viability ([3]; first compound 0.253 µM): 0.894 | relative viability ([3]; first compound 0.8 µM): 0.926 | relative viability ([3]; first compound 2.53 µM): 0.929 | relative viability ([3]; first compound 8 µM): 0.872 | relative viability ([4]; first compound 0.253 µM): 0.83 | relative viability ([4]; first compound 0.8 µM): 0.694 | relative viability ([4]; first compound 2.53 µM): 0.738 | relative viability ([4]; first compound 8 µM): 0.78 | relative viability ([5]; first compound 0.253 µM): 1.03 | relative viability ([5]; first compound 0.8 µM): 1.05 | relative viability ([5]; first compound 2.53 µM): 0.95 | relative viability ([5]; first compound 8 µM): 0.959

NCI-H1793
relative viability ([1]; first compound 0.253 µM): 0.433 | relative viability ([1]; first compound 0.8 µM): 0.422 | relative viability ([1]; first compound 2.53 µM): 0.435 | relative viability ([1]; first compound 8 µM): 0.394 | relative viability ([2]; first compound 0.253 µM): 0.332 | relative viability ([2]; first compound 0.8 µM): 0.389 | relative viability ([2]; first compound 2.53 µM): 0.339 | relative viability ([2]; first compound 8 µM): 0.395 | relative viability ([3]; first compound 0.253 µM): 0.947 | relative viability ([3]; first compound 0.8 µM): 0.917 | relative viability ([3]; first compound 2.53 µM): 0.505 | relative viability ([3]; first compound 8 µM): 0.764 | relative viability ([4]; first compound 0.253 µM): 0.915 | relative viability ([4]; first compound 0.8 µM): 0.798 | relative viability ([4]; first compound 2.53 µM): 0.898 | relative viability ([4]; first compound 8 µM): 0.632 | relative viability ([5]; first compound 0.253 µM): 0.932 | relative viability ([5]; first compound 0.8 µM): 0.898 | relative viability ([5]; first compound 2.53 µM): 1.08 | relative viability ([5]; first compound 8 µM): 0.927

NCI-H1915
relative viability ([1]; first compound 0.253 µM): 0.285 | relative viability ([1]; first compound 0.8 µM): 0.311 | relative viability ([1]; first compound 2.53 µM): 0.328 | relative viability ([1]; first compound 8 µM): 0.291 | relative viability ([2]; first compound 0.253 µM): 0.409 | relative viability ([2]; first compound 0.8 µM): 0.459 | relative viability ([2]; first compound 2.53 µM): 0.449 | relative viability ([2]; first compound 8 µM): 0.464 | relative viability ([3]; first compound 0.253 µM): 0.253 | relative viability ([3]; first compound 0.8 µM): 0.243 | relative viability ([3]; first compound 2.53 µM): 0.282 | relative viability ([3]; first compound 8 µM): 0.25 | relative viability ([4]; first compound 0.253 µM): 0.511 | relative viability ([4]; first compound 0.8 µM): 0.512 | relative viability ([4]; first compound 2.53 µM): 0.495 | relative viability ([4]; first compound 8 µM): 0.518 | relative viability ([5]; first compound 0.253 µM): 1.09 | relative viability ([5]; first compound 0.8 µM): 1.1 | relative viability ([5]; first compound 2.53 µM): 1.1 | relative viability ([5]; first compound 8 µM): 1.11

NCI-H1944
relative viability ([1]; first compound 0.253 µM): 0.207 | relative viability ([1]; first compound 0.8 µM): 0.192 | relative viability ([1]; first compound 2.53 µM): 0.233 | relative viability ([1]; first compound 8 µM): 0.232 | relative viability ([2]; first compound 0.253 µM): 0.245 | relative viability ([2]; first compound 0.8 µM): 0.241 | relative viability ([2]; first compound 2.53 µM): 0.264 | relative viability ([2]; first compound 8 µM): 0.246 | relative viability ([3]; first compound 0.253 µM): 0.38 | relative viability ([3]; first compound 0.8 µM): 0.348 | relative viability ([3]; first compound 2.53 µM): 0.388 | relative viability ([3]; first compound 8 µM): 0.368 | relative viability ([4]; first compound 0.253 µM): 0.529 | relative viability ([4]; first compound 0.8 µM): 0.472 | relative viability ([4]; first compound 2.53 µM): 0.595 | relative viability ([4]; first compound 8 µM): 0.523 | relative viability ([5]; first compound 0.253 µM): 1.27 | relative viability ([5]; first compound 0.8 µM): 1.1 | relative viability ([5]; first compound 2.53 µM): 1.17 | relative viability ([5]; first compound 8 µM): 1.17

NCI-H1975
relative viability ([1]; first compound 0.253 µM): 0.376 | relative viability ([1]; first compound 0.8 µM): 0.426 | relative viability ([1]; first compound 2.53 µM): 0.329 | relative viability ([1]; first compound 8 µM): 0.35 | relative viability ([2]; first compound 0.253 µM): 0.651 | relative viability ([2]; first compound 0.8 µM): 1.03 | relative viability ([2]; first compound 2.53 µM): 0.797 | relative viability ([2]; first compound 8 µM): 0.88 | relative viability ([3]; first compound 0.253 µM): 0.801 | relative viability ([3]; first compound 0.8 µM): 0.847 | relative viability ([3]; first compound 2.53 µM): 0.822 | relative viability ([3]; first compound 8 µM): 0.77 | relative viability ([4]; first compound 0.253 µM): 0.663 | relative viability ([4]; first compound 0.8 µM): 0.754 | relative viability ([4]; first compound 2.53 µM): 0.73 | relative viability ([4]; first compound 8 µM): 0.712 | relative viability ([5]; first compound 0.253 µM): 0.812 | relative viability ([5]; first compound 0.8 µM): 1.05 | relative viability ([5]; first compound 2.53 µM): 0.964 | relative viability ([5]; first compound 8 µM): 0.954

NCI-H1993
relative viability ([1]; first compound 0.253 µM): 0.762 | relative viability ([1]; first compound 0.8 µM): 0.619 | relative viability ([1]; first compound 2.53 µM): 0.662 | relative viability ([1]; first compound 8 µM): 0.605 | relative viability ([2]; first compound 0.253 µM): 0.614 | relative viability ([2]; first compound 0.8 µM): 0.629 | relative viability ([2]; first compound 2.53 µM): 0.579 | relative viability ([2]; first compound 8 µM): 0.562 | relative viability ([3]; first compound 0.253 µM): 1.01 | relative viability ([3]; first compound 0.8 µM): 1.12 | relative viability ([3]; first compound 2.53 µM): 0.98 | relative viability ([3]; first compound 8 µM): 0.927 | relative viability ([4]; first compound 0.253 µM): 0.697 | relative viability ([4]; first compound 0.8 µM): 1.05 | relative viability ([4]; first compound 2.53 µM): 0.958 | relative viability ([4]; first compound 8 µM): 0.783 | relative viability ([5]; first compound 0.253 µM): 0.692 | relative viability ([5]; first compound 0.8 µM): 0.793 | relative viability ([5]; first compound 2.53 µM): 0.815 | relative viability ([5]; first compound 8 µM): 0.667

NCI-H2009
relative viability ([1]; first compound 0.253 µM): 0.316 | relative viability ([1]; first compound 0.8 µM): 0.305 | relative viability ([1]; first compound 2.53 µM): 0.33 | relative viability ([1]; first compound 8 µM): 0.3 | relative viability ([2]; first compound 0.253 µM): 0.691 | relative viability ([2]; first compound 0.8 µM): 0.862 | relative viability ([2]; first compound 2.53 µM): 0.737 | relative viability ([2]; first compound 8 µM): 0.739 | relative viability ([3]; first compound 0.253 µM): 0.674 | relative viability ([3]; first compound 0.8 µM): 0.768 | relative viability ([3]; first compound 2.53 µM): 0.7 | relative viability ([3]; first compound 8 µM): 0.649 | relative viability ([4]; first compound 0.253 µM): 0.752 | relative viability ([4]; first compound 0.8 µM): 0.733 | relative viability ([4]; first compound 2.53 µM): 0.746 | relative viability ([4]; first compound 8 µM): 0.699 | relative viability ([5]; first compound 0.253 µM): 1.24 | relative viability ([5]; first compound 0.8 µM): 1.26 | relative viability ([5]; first compound 2.53 µM): 1.17 | relative viability ([5]; first compound 8 µM): 1.13

NCI-H2023
relative viability ([1]; first compound 0.253 µM): 0.576 | relative viability ([1]; first compound 0.8 µM): 0.529 | relative viability ([1]; first compound 2.53 µM): 0.578 | relative viability ([1]; first compound 8 µM): 0.532 | relative viability ([2]; first compound 0.253 µM): 0.256 | relative viability ([2]; first compound 0.8 µM): 0.355 | relative viability ([2]; first compound 2.53 µM): 0.366 | relative viability ([2]; first compound 8 µM): 0.362 | relative viability ([3]; first compound 0.253 µM): 0.471 | relative viability ([3]; first compound 0.8 µM): 0.564 | relative viability ([3]; first compound 2.53 µM): 0.518 | relative viability ([3]; first compound 8 µM): 0.422 | relative viability ([4]; first compound 0.253 µM): 0.727 | relative viability ([4]; first compound 0.8 µM): 0.526 | relative viability ([4]; first compound 2.53 µM): 0.588 | relative viability ([4]; first compound 8 µM): 0.572 | relative viability ([5]; first compound 0.253 µM): 0.728 | relative viability ([5]; first compound 0.8 µM): 0.667 | relative viability ([5]; first compound 2.53 µM): 0.687 | relative viability ([5]; first compound 8 µM): 0.589
